{"source": "patent US20190374554A1", "about": "“USE OF OXYGENATED CHOLESTEROL SULFATES (OCS) TO TREAT INFLAMMATORY SKIN DISEASE AND SKIN LESIONS” (Virginia Commonwealth University, priority 2016, published 2019)", "key": {"Hannover Wistar rats [1]": {"system": "Hannover Wistar rats", "experiment": "Acute single dose intramuscular (IM) injection study in rats", "format": "in vivo", "conditions": "minimal to moderate, drug-treated vs vehicle", "description": "For the acute single dose study, Hannover Wistar rats (n=5/sex/dose group) received a single IM injection followed by 2 and 14 day observation periods. The solution that was tested included 30 mg/mL of 25HC3S sodium salt in vehicle (250 mg/mL hydroxypropyl-β-cyclodextrin in 10 mM sodium phosphate buffer in sterile water). Dose levels of 0 (vehicle), 3, 10 and 30 mg/kg of 25HC3S sodium salt were administered in dose volumes of 1.0, 0.1, 0.3 and 1.0 mL/kg. […] The changes were less severe (minimal only) after 14 days, indicating partial recovery; no clear effect of the presence of 25HC3S or vehicle volume was observed."}, "Hannover Wistar rats [2]": {"system": "Hannover Wistar rats", "experiment": "Two-week subcutaneous (SC) injection study in rats", "format": "in vivo", "description": "In a separate study, Hannover Wistar rats (n=12/sex/dose group) received daily SC injections of a solution of 30 mg/mL of 25HC3S sodium salt in vehicle (250 mg/mL hydroxypropyl-β-cyclodextrin in 10 mM sodium phosphate buffer in sterile water) for 2 weeks. Dose levels of 0 (vehicle), 15, 45 and 150 mg/kg of 25HC3S sodium salt were administered in dose volumes of 5.0, 0.5, 1.5 and 5.0 mL/kg. Following 14 days of dose administration, all rats were euthanized and necropsied"}, "[3]": {"experiment": "Infusion compatibility: 25HC3S diluted in 0.9% sodium chloride infusion bag and eluted through infusion sets (potency, osmolality, pH, appearance)", "format": "physicochemical", "conditions": "for After Storage in Infusion Bag and Collection from Infusion Set % Remaining Compared to T = 0 / After Storage in Infusion Bag and Collection from Infusion Set Concentration / After Storage in Infusion Bag and Collection from Infusion Set Osmolality / After Storage in Infusion Bag and Collection from Infusion Set pH: 0.9% sodium chloride, approx. 0.28 mg/mL", "description": "A physical and chemical compatibility study was conducted at a 30 mg, 48 mg and 300 mg 25HC3S dose in 5% dextrose and 0.9% sodium chloride infusion bags. Descriptions of the two kinds of infusion sets tested with 25HC3S product diluted in 5% dextrose and 0.9% sodium chloride are listed in Table 15. The tubing in catalog number 2H8480 infusion set was composed of polyvinylchloride (PVC), while the tubing in catalog number 2C8858 was polyethylene lined except for a short pump segment (approximately 12 inches) which was composed of PVC.\n25HC3S for Injection and Vehicle for 25HC3S for Injection, that had been stored at 2-8° C. for approximately 16 months, were used for the compatibility study. After constitution, 30 mg (1.0 mL of constituted product), 48 mg (1.6 mL of constituted product) or 300 mg (10 mL of constituted product) were added to 100 mL infusion bags of 5% dextrose and 0.9% sodium chloride, mixed thoroughly, and stored for 24 hours at room temperature and at 2-8° C. […] Taking into consideration the overfill per infusion bag and the additional volume introduced by adding the constituted 25HC3S product to each bag, the expected concentrations of 25HC3S were 0.28 mg/mL, 0.44 mg/mL, and 2.56 mg/mL in the infusion bags. Two kinds of infusion sets were then attached to the drug containing infusion bags, and the entire contents were eluted through the infusion sets at approximately 50 mL/hour at room temperature. Samples were collected from the 25HC3S prepared infusion bags at T=0 and at 24 hours, and from the total eluent passed through the infusion sets, and tested for 25HC3S concentration using HPLC. Solution visual appearance, osmolality (using method USP<785>), and pH (using method USP<791>) were also measured on the collected samples."}, "[4]": {"conditions": "0.9% sodium chloride bag, approx. 0.28 mg/mL 25HC3S"}, "[5]": {"conditions": "0.9% sodium chloride bag, approx. 0.44 mg/mL 25HC3S"}, "[6]": {"conditions": "0.9% sodium chloride bag, approx. 2.56 mg/mL 25HC3S"}, "[7]": {"conditions": "bag 24 h at 2-8° C., Baxter 2C8858"}, "[8]": {"conditions": "bag 24 h at 2-8° C., Baxter 2H8480"}, "[9]": {"conditions": "bag 24 h at 25° C., Baxter 2C8858"}}, "note": "“And” between values parts separate entries of the source, which are not always exact repeats. Equal entries are not always repeated.", "data": [{"smiles": "C[C@H](CCCC(C)(C)O)[C@H]1CC[C@H]2[C@@H]3CC=C4C[C@@H](OS(=O)(=O)[O-])CC[C@]4(C)[C@H]3CC[C@]12C.[Na+]", "note": "[Formulation 25HC3S, 5-cholesten-3, 25-diol, 3-sulfate]", "values": [{"measurement": "muscle degeneration/regeneration, hemorrhage and inflammation in injected muscles", "setting": "Hannover Wistar rats [1]", "result": "incidence and severity similar in vehicle and drug-treated rats"}, {"measurement": "higher mean liver weights compared to controls", "setting": "Hannover Wistar rats [2]; male and female rats, 150 mg/kg daily SC, 2 weeks", "result": 10, "unit": "%"}, {"measurement": "lower mean serum cholesterol compared to vehicle controls", "setting": "Hannover Wistar rats [2]; male rats, 150 mg/kg daily SC, after 2 weeks", "result": 22, "unit": "%"}, {"measurement": "Cytoplasmic vacuolation of the proximal tubules of the kidneys", "setting": "Hannover Wistar rats [2]; rats, 150 mg/kg daily SC, 2 weeks, vs vehicle controls", "result": "severity was similar in vehicle control and rats"}, {"measurement": "collagen degeneration and hemorrhage at the injection sites", "setting": "Hannover Wistar rats [2]; rats, daily SC 2 weeks, compared to vehicle (FIG. 1A)", "result": "tended to be lower"}, {"measurement": "alveolar macrophages in the lungs", "setting": "Hannover Wistar rats [2]; rats, daily SC 2 weeks, seen in vehicle controls and drug-treated rats", "result": "minimal increase"}, {"measurement": "24 Hours at 2-8° C. Concentration", "setting": "[3]; [4]", "result": 0.275, "unit": "mg/mL"}, {"measurement": "24 Hours at 2-8° C. Osmolality", "setting": "[3]; [4]", "result": 276, "unit": "mmol/kg"}, {"measurement": "24 Hours at 2-8° C. pH", "setting": "[3]; [4]", "result": "5.87 and 5.99"}, {"measurement": "24 Hours at 25° C. Concentration", "setting": "[3]; [4]", "result": "0.272 mg/mL and 0.274 mg/mL"}, {"measurement": "24 Hours at 25° C. Osmolality", "setting": "[3]; [4]", "result": "275 mmol/kg and 277 mmol/kg"}, {"measurement": "24 Hours at 25° C. pH", "setting": "[3]; [4]", "result": "5.93 and 5.92"}, {"measurement": "T = 0 Conc.", "setting": "[3]; [4]", "result": "0.273 mg/mL and 0.274 mg/mL and 0.275 mg/mL"}, {"measurement": "T = 0 Osmolality", "setting": "[3]; [4]", "result": "278 mmol/kg and 277 mmol/kg"}, {"measurement": "T = 0 pH", "setting": "[3]; [4]", "result": "6.39 and 6.43 and 6.45 and 6.40"}, {"measurement": "24 Hours at 2-8° C. % Remaining Compared to T = 0", "setting": "[3]; [5]", "result": "(100.0%)"}, {"measurement": "24 Hours at 2-8° C. Concentration", "setting": "[3]; [5]", "result": "0.434 mg/mL and 0.425 mg/mL"}, {"measurement": "24 Hours at 2-8° C. Osmolality", "setting": "[3]; [5]", "result": 281, "unit": "mmol/kg"}, {"measurement": "24 Hours at 2-8° C. pH", "setting": "[3]; [5]", "result": "7.43 and 7.19"}, {"measurement": "24 Hours at 25° C. % Remaining Compared to T = 0", "setting": "[3]; [5]", "result": "(100.0%)"}, {"measurement": "24 Hours at 25° C. Concentration", "setting": "[3]; [5]", "result": "0.434 mg/mL and 0.424 mg/mL"}, {"measurement": "24 Hours at 25° C. Osmolality", "setting": "[3]; [5]", "result": 280, "unit": "mmol/kg"}, {"measurement": "24 Hours at 25° C. pH", "setting": "[3]; [5]", "result": "7.33 and 7.41"}, {"measurement": "T = 0 Conc.", "setting": "[3]; [5]", "result": "0.434 mg/mL and 0.424 mg/mL and 0.425 mg/mL"}, {"measurement": "T = 0 Osmolality", "setting": "[3]; [5]", "result": "277 mmol/kg and 279 mmol/kg and 284 mmol/kg and 280 mmol/kg"}, {"measurement": "T = 0 pH", "setting": "[3]; [5]", "result": "7.30 and 7.43 and 7.21 and 7.44"}, {"measurement": "24 Hours at 2-8° C. Concentration", "setting": "[3]; [6]", "result": "2.510 mg/mL and 2.520 mg/mL"}, {"measurement": "24 Hours at 2-8° C. Osmolality", "setting": "[3]; [6]", "result": 283, "unit": "mmol/kg"}, {"measurement": "24 Hours at 2-8° C. pH", "setting": "[3]; [6]", "result": "5.93 and 5.96"}, {"measurement": "24 Hours at 25° C. Concentration", "setting": "[3]; [6]", "result": "2.500 mg/mL and 2.525 mg/mL"}, {"measurement": "24 Hours at 25° C. Osmolality", "setting": "[3]; [6]", "result": 282, "unit": "mmol/kg"}, {"measurement": "24 Hours at 25° C. pH", "setting": "[3]; [6]", "result": "6.01 and 5.86"}, {"measurement": "T = 0 Conc.", "setting": "[3]; [6]", "result": "2.450 mg/mL and 2.530 mg/mL and 2.525 mg/mL"}, {"measurement": "T = 0 Osmolality", "setting": "[3]; [6]", "result": "282 mmol/kg and 281 mmol/kg"}, {"measurement": "T = 0 pH", "setting": "[3]; [6]", "result": "6.20 and 6.10 and 6.07 and 6.11"}, {"measurement": "After Storage in Infusion Bag and Collection from Infusion Set % Remaining Compared to T = 0", "setting": "[3]; [7]", "result": "(100.0%)"}, {"measurement": "After Storage in Infusion Bag and Collection from Infusion Set Concentration", "setting": "[3]; [7]", "result": 0.275, "unit": "mg/mL"}, {"measurement": "After Storage in Infusion Bag and Collection from Infusion Set Osmolality", "setting": "[3]; [7]", "result": 276, "unit": "mmol/kg"}, {"measurement": "After Storage in Infusion Bag and Collection from Infusion Set pH", "setting": "[3]; [7]", "result": 5.78}, {"measurement": "After Storage in Infusion Bag and Collection from Infusion Set % Remaining Compared to T = 0", "setting": "[3]; [8]", "result": "(100.4%)"}, {"measurement": "After Storage in Infusion Bag and Collection from Infusion Set Concentration", "setting": "[3]; [8]", "result": 0.275, "unit": "mg/mL"}, {"measurement": "After Storage in Infusion Bag and Collection from Infusion Set Osmolality", "setting": "[3]; [8]", "result": 277, "unit": "mmol/kg"}, {"measurement": "After Storage in Infusion Bag and Collection from Infusion Set pH", "setting": "[3]; [8]", "result": 5.81}, {"measurement": "After Storage in Infusion Bag and Collection from Infusion Set % Remaining Compared to T = 0", "setting": "[3]; [9]", "result": "(100.0%)"}, {"measurement": "After Storage in Infusion Bag and Collection from Infusion Set Concentration", "setting": "[3]; [9]", "result": 0.274, "unit": "mg/mL"}, {"measurement": "After Storage in Infusion Bag and Collection from Infusion Set Osmolality", "setting": "[3]; [9]", "result": 276, "unit": "mmol/kg"}, {"measurement": "After Storage in Infusion Bag and Collection from Infusion Set pH", "setting": "[3]; [9]", "result": 5.83}, {"measurement": "After Storage in Infusion Bag and Collection from Infusion Set % Remaining Compared to T = 0", "setting": "[3]; bag 24 h at 25° C., Baxter 2H8480", "result": "(99.6%)"}]}]}
